Measured values as given in patent publication US20230364061A1, “THIAZOLIDINE DERIVATIVES FOR INHIBITING CAV3.2-USP5 INTERACTIONS” (Zymedyne Therapeutics Inc., priority 2020, published 2023).

Tests used:
[1] = tested on: recombinant USP5 (long or short splice variant); test: USP5 deubiquitinase (DUB) activity assay; type: biochemical; conditions: recombinant long or short form of USP5, fluorescence over time (FIG. 8)
Protocol: FIG. 8 examines the effect of exemplary compound II-1 on in vitro deubiqutinase activity of USP5. Here recombinant USP5 (either the long or the short splice variant) is incubated with a ubiquitinated substrate, and deubiquitination is measured via a fluorescence readout as a function of time.
To rule out the possibility that exemplary compound II-1 might mediate its analgesic effects by altering the deubiquitinase (DUB) activity of USPS rather than by disrupting the interactions with the channel, a DUB assays was conducted (FIG. 8). Here, a ubiquitinated substrate (ubiquitin-rhodamine110-glycine) is incubated with recombinant long or short forms of USP5, and deubiquitination of the substrate as a function of time is measured via a fluorescence readout. Both the long form and the short form of USP5 lead to deubiquitination of the substrate, as evident from an increasing and plateauing fluorescence signal (528 nm emission in response to 485 nm excitation). The commercially available DUB inhibitor Degrasyn which is used as a positive control prevents this.

[2] = tested on: CFA induced thermal hypersensitivity in Cav3.2-/- mice; test: CFA thermal hypersensitivity in Cav3.2 null mice; type: in vivo; conditions: 45 minutes after administration (FIG. 7)
Protocol: FIG. 7 compares the effects of exemplary compound II-1 on CFA mediated thermal hypersensitivity in wild type mice and in mice lacking Cav3.2 channels (45 minutes after administration of the compound). […] Cav3.2^−/− mice have compensatory mechanisms that lead to increased thermal hypersensitivity in response to CFA even though Cav3.2 channels are absent.

[3] = molecular target: T1, association of USP5 and Cav3.2 channels (Mus musculus, UniProt P56399); test: Co-immunoprecipitation of USP5 with Cav3.2 from brain lysate; type: binding; conditions: 1 uM compound, whole brain lysates, n=5 (FIG. 4)
T1 construct: using whole brain lysates and probed for USP5; from tissue; host or cells: mouse whole brain homogenate/lysate
T1 sequence (P56399 1-858): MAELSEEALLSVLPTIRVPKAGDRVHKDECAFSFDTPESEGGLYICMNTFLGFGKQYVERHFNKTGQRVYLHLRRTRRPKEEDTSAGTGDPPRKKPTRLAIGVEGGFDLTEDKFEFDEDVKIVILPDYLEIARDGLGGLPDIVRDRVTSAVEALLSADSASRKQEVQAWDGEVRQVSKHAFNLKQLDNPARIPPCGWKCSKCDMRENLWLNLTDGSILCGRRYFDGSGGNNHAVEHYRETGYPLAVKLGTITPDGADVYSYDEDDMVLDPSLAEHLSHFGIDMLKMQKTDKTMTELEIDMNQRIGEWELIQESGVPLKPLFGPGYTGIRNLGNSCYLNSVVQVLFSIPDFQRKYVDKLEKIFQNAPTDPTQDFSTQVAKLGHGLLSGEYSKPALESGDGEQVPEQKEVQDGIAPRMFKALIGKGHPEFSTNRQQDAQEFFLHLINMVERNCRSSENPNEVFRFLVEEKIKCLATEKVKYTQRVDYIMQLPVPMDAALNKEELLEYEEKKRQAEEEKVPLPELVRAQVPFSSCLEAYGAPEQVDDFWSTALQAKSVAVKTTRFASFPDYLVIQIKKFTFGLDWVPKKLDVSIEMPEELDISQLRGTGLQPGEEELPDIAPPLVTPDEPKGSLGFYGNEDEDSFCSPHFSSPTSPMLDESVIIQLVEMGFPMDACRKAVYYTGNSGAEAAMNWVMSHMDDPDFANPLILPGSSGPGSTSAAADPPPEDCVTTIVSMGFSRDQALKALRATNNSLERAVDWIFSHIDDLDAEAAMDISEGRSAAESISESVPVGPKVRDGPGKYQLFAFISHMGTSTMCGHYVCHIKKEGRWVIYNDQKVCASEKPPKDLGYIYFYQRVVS
Protocol: FIG. 4 is a graph showing the results of the of immunoprecipitation assay with Cav3.2 channels and a rabbit 3.2 polyclonal antibody using whole brain lysates and probed for USP5 (n=5). Quantifications were normalized to bound USP5 to Cav3.2 IP/alpha-tubulin. 1 uM of exemplary compounds II-1 and II-2 were used in the incubation. 5 uM of a positive control compound was used in the incubation.
A co-immunoprecipitation assay was implemented as a secondary screen for actives derived from the compound library screen. Moause brain homogenate was prepared, and the tissue containing was incubated with a rabbit Cav3.2 polyclonal antibody to immunoprecipitate Cav3.2 channel complexes. The precipitates were run on a Western blot and probed with an antibody against USP5 (n=5). Band intensities for bound USP5 were quantified and normalized to alpha-tubulin (FIG. 4). 1 μM of exemplary compounds II-1 and II-2 were used in the incubation. 5 μM of a control compound identified in a previous library screen was used as a positive control.

[4] = tested on: formalin induced nocifensive responses; test: Formalin-induced pain assay; type: in vivo; conditions: mice, intrathecal delivery, both phases (FIG. 5)
Protocol: Formalin was injected into the hindpaw of a mouse, and the time that the mouse spent licking and biting its paw was determined. There are two phases of these nocifensive behavioral responses—phase I occurs immediately after formalin injection and reflects an acute response, phase II occurs approximately thirty minutes after formalin injection and reflects inflammatory pain. II-1 inhibited the duration of both phases in a dose dependent manner. […] Formalin injection into the hindpaw mediates nocifensive responses (paw licking, biting). There is an initial phase that reflects an acute responses to formalin injection, followed by a quiescent period and a second phase of nocifensive behaviors that reflects inflammatory pain. The duration of the responses is reflective of the amount of pain. […] The same doses were then used in a chronic inflammatory pain assay (i.e. CFA).

[5] = tested on: CFA induced thermal hypersensitivity; test: Complete Freund's Adjuvant (CFA) model of chronic inflammatory pain, thermal hypersensitivity; type: in vivo, mice
Protocol: The latency to paw withdrawal in response to radiate heat to the paw decreases after CFA, and II-1 reverses this hypersensitivity in a dose dependent manner, indicating a strong analgesic effect of II-1. […] CFA injection into the hind paw leads to long lasting (weeks) mechanical and thermal hypersensitivity of the hind paw that is reflective of chronic inflammatory pain states. Thermal hypersensitivity is assessed by applying a radiant heat source to the hind paw of the animal and measuring the time between application of the heat source and the withdrawal of the paw. In CFA treated animals, the withdrawal latencies are dramatically shortened, and reflective of thermal hypersensitivity (i.e. thermal pain responses). […] Two asterisks indicate statistical significance at the 0.01 level, three asterisks indicate statistical significance at the 0.001 level relative to CFA+vehicle. FIG. 7 compares the effects of exemplary compound II-1 on CFA mediated thermal hypersensitivity in wild type mice and in mice lacking Cav3.2 channels (45 minutes after administration of the compound). […] Cav3.2^-/- mice have compensatory mechanisms that lead to increased thermal hypersensitivity in response to CFA even though Cav3.2 channels are absent.

[6] = molecular target: T2, USP5-Cav3.2 interaction (recombinant USP5 binding to immobilized Cav3.2 domain III-IV linker peptides) (Homo sapiens, UniProt P45974); test: Cav3.2-USP5 ELISA assay; conditions: for Percent Inhibition: Cav3.2-USP5 ELISA of Example 1, concentration not given
T2 sequence (P45974 1-858): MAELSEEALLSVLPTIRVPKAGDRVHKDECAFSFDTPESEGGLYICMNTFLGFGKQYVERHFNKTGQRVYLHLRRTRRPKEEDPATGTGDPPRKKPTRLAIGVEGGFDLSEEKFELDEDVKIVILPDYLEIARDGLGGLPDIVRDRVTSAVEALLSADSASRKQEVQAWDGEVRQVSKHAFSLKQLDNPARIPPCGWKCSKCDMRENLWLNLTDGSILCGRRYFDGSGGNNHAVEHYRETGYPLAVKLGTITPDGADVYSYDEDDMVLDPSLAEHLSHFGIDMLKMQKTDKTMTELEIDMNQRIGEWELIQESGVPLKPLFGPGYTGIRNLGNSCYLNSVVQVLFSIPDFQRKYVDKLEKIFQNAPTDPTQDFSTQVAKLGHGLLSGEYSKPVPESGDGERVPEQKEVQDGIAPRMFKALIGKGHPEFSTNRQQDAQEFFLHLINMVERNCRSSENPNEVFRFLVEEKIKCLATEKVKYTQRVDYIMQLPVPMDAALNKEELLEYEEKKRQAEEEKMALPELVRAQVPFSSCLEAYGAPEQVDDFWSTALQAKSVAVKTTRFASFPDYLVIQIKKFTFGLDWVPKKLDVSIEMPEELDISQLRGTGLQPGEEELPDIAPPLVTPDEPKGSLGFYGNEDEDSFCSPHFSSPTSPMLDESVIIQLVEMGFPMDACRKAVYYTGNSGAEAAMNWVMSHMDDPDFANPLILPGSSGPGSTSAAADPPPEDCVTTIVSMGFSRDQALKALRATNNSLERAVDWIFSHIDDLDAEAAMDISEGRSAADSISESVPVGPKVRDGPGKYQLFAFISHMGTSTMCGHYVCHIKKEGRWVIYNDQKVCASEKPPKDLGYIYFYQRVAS
Excerpt: FIG. 3 is a schematic of the high throughput ELISA assay used to screen the exemplary compound of the applications. Here the Cav3.2 III-1V linker is immobilized and then recombinant USP5 is allowed to bind. Binding is detected via antibodies conjugated to horseradish peroxidase for a fluorescent readout. Compounds are applied and a reduction in fluorescence is indicative of a disruption of USP5-Cav3.2 interactions.
A high throughput ELISA assay was used to screen the exemplary compounds of the applications (FIG. 3). The ELISA is based on the binding of recombinant USP5 to immobilized Cav3.2 domain […] linker peptides. Binding interactions were detected using USP5 antibodies, and a secondary antibody conjugated to horseradish peroxidase, leading to a fluorescence readout. The ELISA was converted into a high through-put format 384 well plate. Multiple compound libraries were screened for small organic molecules that disrupt the USP5—Cav3.2 interaction. A number of hits were identified at the standard screening concentration, and the dose dependence of hits was investigated. Select actives were subjected to a secondary biochemical assays based on co-immunoprecipitations of USP5 and Cav3.2 from mouse neuronal tissue.
In the ELISA assay from Example 1, compound II-1 was added at varying concentrations, and the ability of II-1 to inhibit the USP5-Cav3.2 interaction examined. The percentage of inhibition as a function of drug concentration could be fitted using the Hill equation.

[7] = tested on: diabetic, visceral, inflammatory and neuropathic pain; conditions: hits of an initial CDRD active compound library screen; cited from earlier work

| SMILES | Percent Inhibition [6] [%] | further results |
| --- | --- | --- |
| CCC[C@H](NC(=O)/C(C#N)=C/c1cccc(Br)n1)c1ccccc1 [Degrasyn, reference compound] | – | deubiquitination of ubiquitin-rhodamine110-glycine by USP5 (fluorescence readout) [1]: inhibits this fluorescence signal |
| CC(O)C(NCC1SC(=S)NC1=O)C(=O)O (stereo not drawn) [II-1] | 100 | deubiquitination of ubiquitin-rhodamine110-glycine by USP5 (fluorescence readout) [1]: does not mediate DUB inhibition; thermal paw withdrawal latency after CFA, Cav3.2 knockout mice [2]: no longer able to reverse CFA induced thermal hypersensitivity; USP5 bound to Cav3.2 IP, normalized to alpha-tubulin [3]: disrupt the association of USP5 and Cav3.2 channels in neuronal tissue; duration of nocifensive responses (paw licking, biting), phase I and phase II [4]: response time is shortened in a dose dependent manner; thermal paw withdrawal latency after CFA ([5]; mice, intrathecal delivery, dose response (FIG. 6)): shortened latencies are reversed in a dose dependent manner; thermal paw withdrawal latency after CFA, wild type mice ([5]; wild type Cav3.2+/+ mice, 45 minutes after administration (FIG. 7)): reversed the CFA-induced reduction in thermal paw withdrawal latencies; dose-response of percent inhibition in the Cav3.2-USP5 ELISA ([6]; varying concentrations, fitted with the Hill equation (FIG. 9)): dose dependence of the effect |
| CC(CO)(CO)NCC1SC(=S)NC1=O (stereo not drawn) [II-2] | 100 | deubiquitination of ubiquitin-rhodamine110-glycine by USP5 (fluorescence readout) [1]: fail to inhibit deubiquitination; USP5 bound to Cav3.2 IP, normalized to alpha-tubulin [3]: disrupt the association of USP5 and Cav3.2 channels in neuronal tissue |
| CC(C)C(NCC1SC(=S)NC1=O)C(=O)O (stereo not drawn) [II-3] | 100 | – |
| CC(C)CC(NCC1SC(=S)NC1=O)C(=O)O (stereo not drawn) [II-4] | 100 | – |
| CCC(C)C(NCC1SC(=S)NC1=O)C(=O)O (stereo not drawn) [II-5] | 86 | – |
| O=c1c(O)c(-c2ccc(O)c(O)c2)oc2c(O)c(O)cc(O)c12 [gossypetin] | – | protection from pain in mice [7]: protect from diabetic, visceral, inflammatory and neuropathic pain in mice |
| Cc1ccc(C(=O)Nc2ccc(S(=O)(=O)O)c3cc(S(=O)(=O)O)cc(S(=O)(=O)O)c23)cc1NC(=O)c1cccc(NC(=O)Nc2cccc(C(=O)Nc3cc(C(=O)Nc4ccc(S(=O)(=O)O)c5cc(S(=O)(=O)O)cc(S(=O)(=O)O)c45)ccc3C)c2)c1 [suramin] | – | protection from pain in mice [7]: protect from diabetic, visceral, inflammatory and neuropathic pain in mice |

The next lines start with results.

| Percent Inhibition [6] [%] | SMILES | further results |
| --- | --- | --- |
| 87 | NCCCCC(NCC1SC(=S)NC1=O)C(=O)O (stereo not drawn) [II-6] | – |
| 85 | O=C(O)CN(CC(=O)O)CC1SC(=S)NC1=O (stereo not drawn) [II-7] | – |
| 82 | O=C(O)CCNCC1SC(=S)NC1=O (stereo not drawn) [II-8] | – |
| 6 | O=C1NC(=S)SC1CNCCCO (stereo not drawn) [II-9] | – |
| 28 | CC(C)CCC(CCC(C)C)NCC1SC(=S)NC1=O (stereo not drawn) [II-10] | – |
| 75 | O=C1NC(=S)SC1CNC1(CCO)CCCCC1 (stereo not drawn) [II-11] | – |
| 82 | O=C1NC(=S)SC1CNC1CCCCC1 (stereo not drawn) [II-12] | – |
